Entries after “also recorded” stand apart in the source; their conditions may differ. Where no end group is shown, it is not given here. The star is where a group is joined. FITC = O=C1OC2(c3ccc(O)cc3Oc3cc(O)ccc32)c2ccc(NC(=S)*)cc21
Experiments:
[1] = system: colon cancer cells; conditions: PCT/AU2010/000203; cited from earlier work
[2] = system: HT29 colon cancer cells; test: In vitro growth inhibition MTT assay, HT29; assay type: cell-based, human; conditions: for Inhibition of HT29 cell growth/proliferation (MTT), in words: serum-free medium, 72 hours, peptide 50 nM-100 μM, compared with RSKAKNPLYR or 10Ala
Experimental: (§1) The human colon cancer cell line HT29, ovarian cancer cell line A2780, breast cancer cell lines MCF-7 and MDA468, and a prostate cancer cell line (DU145) were used for in vitro studies. The cell lines were cultured at 37° C., under air containing 5% CO2 and passaged regularly for optimal growth. Cells were maintained in DMEM medium containing 10% fetal bovine serum. All culture medium preparations were further supplemented with penicillin/streptomycin (100 μg/ml), and
(§2) 1.2 In Vitro Growth Inhibition MTT Assay
Cells in logarithmic growth were transferred to 96-well plates in 100 μl of serum-containing medium at a density of 4000 cells per well. […] […] Growth-inhibitory effects were evaluated by MTT (3-[4,5-dimethylthiazol-2-yl]2,5-diphenyl-tetrazolium bromide) cell growth assay and absorbance was read at 540 nm. Growth of control cells was exponential during the whole incubation period. Mean surviving fractions±SEM values (minimum of 3 separate experiments) were determined for each peptide/cisplatin concentration.

[3] = system: HT29 cells; test: Uptake of FITC-labelled peptide by confocal microscopy; assay type: cell-based, human; conditions: serum-free culture, after 24 hours, compared to FITC alone
Experimental: The ability of 10 Ala to cross the plasma membrane of HT29 cells was assessed by means of confocal microscopy of cells exposed to 10Ala conjugated to fluorosceine isothiocyanate (FITC) under serum-free culture conditions. The peptide used in this study comprised the sequence KRAKAKAAAAR (SEQ ID No. 25) (identified as FITC-K10(4)Ala) with an extra lysine residue at the amino terminus (to which the FITC label is attached). […] A microphotograph showing localization of the FITC-labelled peptide to the cytoplasm of cells compared to cells treated with FITC alone is shown in FIG. 9.

[4] = system: DU145 prostate cancer cells; test: Modified MTT assay, DU145, 5% serum, 48 hours; assay type: cell-based, human; conditions: for Growth inhibition of DU145 prostate cancer cells: 5% serum, 48 hours, concentrations of 0.5 μM or greater
Experimental: (§3) Cells in logarithmic growth were transferred to 96-well plates in 100 μl of serum-containing medium at a density of 4000 cells per well. After 24 hours the previously added serum-containing medium was removed and 200 μl serum free medium (SFM) with or without peptide was added to each of triplicate wells. Drug exposure experiments were carried out on cell lines using varying concentrations of peptides (50 nM-100 μM) and cells were exposed to peptides for 72 hours in serum-free culture medium. Growth-inhibitory effects were evaluated by MTT (3-[4,5-dimethylthiazol-2-yl]2,5-diphenyl-tetrazolium bromide) cell growth assay and absorbance was read at 540 nm. Growth of control cells was exponential during the whole incubation period. Mean surviving fractions±SEM values (minimum of 3 separate experiments) were determined for each peptide/cisplatin concentration.
(§4) The growth inhibitory activity of various concentrations of the 10 RVK peptide (RVKVKVVVVR) (SEQ ID No. 24) with an 8 mer polyarginine sequence coupled to its C-terminal end (i.e., RVKVKVVVVRRRRRRRRR (SEQ ID No. 26), referred to herein as 10 RVK Arg) on MDA468 breast cancer cells was assessed by a modified form of the MTT assay described in Example 1.2 in which 3000 cells per well were cultured for 48 hours in culture medium containing 5% serum. For the negative control, an 8 mer polyargine peptide (8 Arg) was used. The results shown in FIG. 10 are the average of 3 replicate wells for each dosage.
(§5) The growth inhibitory activity of various concentrations of the 10 RVK Arg peptide on MDA468 breast cancer and DU145 prostate cancer cells was assessed by MTT assay involving incubating the cells in 5% serum containing medium for 48 hours as described in Example 2. As a comparison, inhibition of the growth of the cells by the 10 RVK peptide with a 7 mer polyarginine sequence coupled to its C-terminal end (i.e., RVKVKVVVVRRRRRRRR (SEQ ID No. 27), referred to herein as 10 RVK 7 Arg) and the 10 RVK peptide with an 8 mer polyargine sequence coupled to its N-terminal end (i.e., RRRRRRRRRVKVKVVVVR (SEQ ID No. 28), referred to herein as Arg 10 RVK) were also assessed. The results for inhibition of the breast cancer cells are shown in FIG. 11 while the results for treatment of the prostate cancer cells are shown in FIG. 12.

[5] = system: MDA468 breast cancer cells; test: Modified MTT assay, MDA468, 5% serum, 48 hours; assay type: cell-based, human; conditions: for Growth inhibition of MDA468 breast cancer cells: concentrations of 0.5 μM or greater
Experimental: as §3, §4, §5

[6] = system: HT29 colon cancer cells; conditions: in vitro in the presence of serum, Agrez et al., 2011; cited from earlier work
[7] = system: breast (MCF-7) cancer cell line; test: In vitro growth inhibition MTT assay, MCF-7, serum-free; assay type: cell-based, human; conditions: 72 hours
Experimental: as §1, §2, §3

[8] = system: ovarian (A2780) cancer cell line; test: In vitro growth inhibition MTT assay, A2780, serum-free; assay type: cell-based, human; conditions: 72 hours
Experimental: as §1, §2, §3

[9] = system: prostate (DU145) cancer cell line; test: In vitro growth inhibition MTT assay, DU145, serum-free; assay type: cell-based, human; conditions: 72 hours
Experimental: as §1, §2, §3

Substance: RSRARNPLYR (10 mer peptide from B5 integrin cytoplasmic domain) [10 mer peptide derived from the β5 integrin cytoplasmic domain]
- Inhibition of proliferation of colon cancer cells in vitro (previously reported) [1]: effective at inhibiting proliferation

Substance: RAKARAAAAK (10Ala peptide wherein the position of one or both arginine and lysine residues have been inverted)
- Inhibition of HT29 cell growth/proliferation (MTT), in words [2]: significantly reduced the ability of the peptides to inhibit cell growth

Substance: RKRK (A scrambled version of the charged residues RKKR)
- Inhibition of HT29 cell growth/proliferation (MTT), in words [2]: significantly less effective at inhibiting growth of the cells

Substance: RSKAKNPLAR (A short variant peptide of sequence 2)
- Inhibition of HT29 cell growth/proliferation (MTT), in words [2]: not seen

Substance: FITC-KRAKAKAAAAR ({FITC}-KRAKAKAAAAR) [FITC-K10(4)Ala]
- Internalization / localization of FITC-labelled peptide in cells [3]: cytoplasmic localization of peptide

Substance: RVKVKVVVVRRRRRRRR (10RVK peptide with a 7 mer polyarginine sequence coupled to its C-terminal end) [10 RVK 7 Arg]
- Growth inhibition of DU145 prostate cancer cells [4]: markedly inhibited growth
- Growth inhibition of MDA468 breast cancer cells ([5]; 5% serum, 48 hours): markedly inhibited growth

Substance: RVKVKVVVVRRRRRRRRR (8 mer polyarginine sequence couple to the C-terminal end of 10 RVK peptide) [10 RVK Arg]
- Growth inhibitory activity on DU145 compared to 10 RVK with penetratin coupled to its N-terminal ([4]; 10 μM to 50 μM, results not shown): enhanced cell growth inhibitory activity
- Growth inhibition of DU145 prostate cancer cells [4]: markedly inhibited growth
- Growth inhibitory activity on MDA468 compared to 10 RVK with penetratin coupled to its N-terminal ([5]; 5 μM to 10 μM, results not shown): enhanced cell growth inhibitory activity
- Growth inhibition of MDA468 cells ([5]; 5% serum, 48 hours, concentration 5 μM to 50 μM): totally inhibited growth
- Growth inhibition of MDA468 breast cancer cells ([5]; 5% serum, 48 hours): markedly inhibited growth

Substance: RSKAKNPLYR (Non naturally occurring peptide derived from the B6 binding sequence)
- Growth inhibitory effect in the presence of serum (previously shown) [6]: adversely affected

Substance: RAKAKAAAAAR (variant peptide of 10Ala having 5 alanine residues between the lysine and the C-terminal arginine)
- Inhibition of HT29 cell growth/proliferation (MTT), in words [2]: significantly less effective at inhibiting growth

Substance: RAKAKAAAAR (B6 derived peptide)
- Inhibition of MCF-7 cell growth [7]: equally effective
- Inhibition of A2780 cell growth [8]: equally effective
- Growth inhibitory effect in serum-containing medium ([2]; serum-containing medium, data not shown): adversely affected
- Inhibition of HT29 cell growth/proliferation (MTT), in words [2]: ability of both peptides to inhibit cell growth was similar
- Inhibition of HT29 cell growth/proliferation (MTT), in words ([2]; listed as 10Ala): significantly more effective at inhibiting cell proliferation
- Inhibition of DU145 cell growth [9]: equally effective

Substance: RAKAKAAAR (short variant of 10Ala)
- Inhibition of HT29 cell growth/proliferation (MTT), in words [2]: minimal effect; also recorded: significantly less effective at inhibiting growth

Substance: RAAKAARAAK (Scrambled peptide with Alanine in the place of all non-charged residues in peptide of sequence 2.) [scrambled alanine-substituted peptide]
- Inhibition of HT29 cell growth/proliferation (MTT), in words [2]: ineffective

Substance: RKKR (Charged residues for growth inhibitory effect)
- Inhibition of HT29 cell growth/proliferation (MTT), in words [2]: not sufficient to inhibit cancer cell proliferation in vitro to the same degree

Substance: RSKAKNALYR (short variant of sequence 2, scrambled)
- Inhibition of HT29 cell growth/proliferation (MTT), in words [2]: not seen

Substance: RRRRRRRRRVKVKVVVVR (10 RVK peptide with an 8 mer polyargine sequence coupled ot its N-terminal end) [Arg 10 RVK]
- Growth inhibition of DU145 prostate cancer cells [4]: markedly inhibited growth
- Growth inhibition of MDA468 breast cancer cells ([5]; 5% serum, 48 hours): markedly inhibited growth

Substance: KEKLKNPLFK (10-mer peptide from B2 integrin cytoplasmic domains) [10 mer peptide derived from the β2 integrin cytoplasmic domain]
- Inhibition of proliferation of colon cancer cells in vitro (previously reported) [1]: effective at inhibiting proliferation

Substance: RARAKNPLYK (10 mer peptide from B3 integrin cytoplasmic domain) [10 mer peptide derived from the β3 integrin cytoplasmic domain]
- Inhibition of proliferation of colon cancer cells in vitro (previously reported) [1]: effective at inhibiting proliferation

Substance: RSKAKR (SHORT VARIANT OF THE PEPTIDE FROM SEQUENCE 2)
- Inhibition of HT29 cell growth/proliferation (MTT), in words [2]: failed to inhibit proliferation

Substance: RAKAK (shorter variant of 10Ala)
- Inhibition of HT29 cell growth/proliferation (MTT), in words [2]: minimal effect

Substance: KARARAAAAK (10Ala peptide in which the positions of one or both arginine and lysine residues have been inverted)
- Inhibition of HT29 cell growth/proliferation (MTT), in words [2]: significantly reduced the ability of the peptides to inhibit cell growth
